{
  "source": "patent US20250034216A1",
  "about": "“STEREOSELECTIVE COVALENT LIGANDS FOR ONCOGENIC AND IMMUNOLOGICAL PROTEINS” (The Scripps Research Institute, priority 2021, published 2025)",
  "assay_in_all_cases": "IA-DTB cysteine engagement",
  "type_in_all_cases": "binding",
  "key": {"[1]": {"molecular_target": "T1, ABCB8_C454 (Homo sapiens, UniProt Q9NUT2)", "T1 construct": "endogenous in cells; host or cells: 22Rv1", "T1 sequence (Q9NUT2 26-735)": "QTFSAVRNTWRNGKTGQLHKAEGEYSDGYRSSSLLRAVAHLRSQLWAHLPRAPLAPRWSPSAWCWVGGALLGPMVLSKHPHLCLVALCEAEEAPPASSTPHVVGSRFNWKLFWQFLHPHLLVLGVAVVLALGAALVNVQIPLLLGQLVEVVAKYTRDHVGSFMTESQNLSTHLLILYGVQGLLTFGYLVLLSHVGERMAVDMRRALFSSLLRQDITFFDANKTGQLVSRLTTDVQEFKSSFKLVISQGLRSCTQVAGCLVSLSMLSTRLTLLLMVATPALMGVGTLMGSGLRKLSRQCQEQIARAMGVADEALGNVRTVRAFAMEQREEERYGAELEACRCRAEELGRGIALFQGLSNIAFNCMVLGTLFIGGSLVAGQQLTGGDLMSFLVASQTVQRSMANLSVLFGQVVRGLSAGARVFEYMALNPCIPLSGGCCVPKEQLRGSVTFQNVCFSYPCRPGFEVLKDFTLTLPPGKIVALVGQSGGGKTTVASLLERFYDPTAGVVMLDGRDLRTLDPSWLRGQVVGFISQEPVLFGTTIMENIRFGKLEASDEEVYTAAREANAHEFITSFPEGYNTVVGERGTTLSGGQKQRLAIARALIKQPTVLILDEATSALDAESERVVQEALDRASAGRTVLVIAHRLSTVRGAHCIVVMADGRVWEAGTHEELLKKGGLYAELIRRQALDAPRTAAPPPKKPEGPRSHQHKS", "details": "22Rv1 cells, 20 μM probe, 1 h, relative to DMSO", "summary_of_the_method": "(§1)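 In-situ probe treatment of cells; lysate 2 mg/mL, IA-DTB 1 h RT; MeOH/CHCl3 precipitation, DTT/iodoacetamide, trypsin; streptavidin enrichment; TMT labeling, high-pH fractionation. Ratio = TMT reporter intensity / mean DMSO channels, median-normalized.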"}, "[2]": {"molecular_target": "T2, BCKDK_C118 (Homo sapiens, UniProt O14874)", "T2 construct": "endogenous in cells; host or cells: 22Rv1", "details": "22Rv1 cells, 20 μM probe, 1 h, relative to DMSO", "summary_of_the_method": "as §1"}, "[3]": {"molecular_target": "T3, EPB42_C586 (Homo sapiens, UniProt P16452)", "T3 construct": "endogenous in cells; host or cells: 22Rv1", "T3 sequence (P16452 1-691)": "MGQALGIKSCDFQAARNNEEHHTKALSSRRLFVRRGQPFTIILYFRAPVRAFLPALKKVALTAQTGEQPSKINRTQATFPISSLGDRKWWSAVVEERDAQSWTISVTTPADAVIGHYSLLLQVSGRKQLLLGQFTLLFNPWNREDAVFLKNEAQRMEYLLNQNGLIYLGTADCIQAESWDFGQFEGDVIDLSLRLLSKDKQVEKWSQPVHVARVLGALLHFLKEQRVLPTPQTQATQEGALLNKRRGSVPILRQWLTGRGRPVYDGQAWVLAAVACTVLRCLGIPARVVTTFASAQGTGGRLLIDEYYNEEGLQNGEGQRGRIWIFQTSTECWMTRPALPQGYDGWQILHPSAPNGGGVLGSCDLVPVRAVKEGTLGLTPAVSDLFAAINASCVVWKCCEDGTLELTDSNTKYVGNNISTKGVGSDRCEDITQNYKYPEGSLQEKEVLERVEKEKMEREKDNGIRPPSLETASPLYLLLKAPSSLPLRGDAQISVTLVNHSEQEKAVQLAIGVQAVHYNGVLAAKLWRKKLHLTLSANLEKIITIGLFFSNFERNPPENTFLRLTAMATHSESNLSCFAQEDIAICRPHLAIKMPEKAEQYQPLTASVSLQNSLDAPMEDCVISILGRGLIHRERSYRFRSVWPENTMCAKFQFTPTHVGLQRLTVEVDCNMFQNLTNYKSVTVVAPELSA", "details": "22Rv1 cells, 20 μM probe, 1 h, relative to DMSO", "summary_of_the_method": "as §1"}, "[4]": {"molecular_target": "T4, NCAPD2_C439 (Homo sapiens, UniProt Q15021)", "T4 construct": "endogenous in cells; host or cells: 22Rv1", "T4 sequence (Q15021 whole entry)": "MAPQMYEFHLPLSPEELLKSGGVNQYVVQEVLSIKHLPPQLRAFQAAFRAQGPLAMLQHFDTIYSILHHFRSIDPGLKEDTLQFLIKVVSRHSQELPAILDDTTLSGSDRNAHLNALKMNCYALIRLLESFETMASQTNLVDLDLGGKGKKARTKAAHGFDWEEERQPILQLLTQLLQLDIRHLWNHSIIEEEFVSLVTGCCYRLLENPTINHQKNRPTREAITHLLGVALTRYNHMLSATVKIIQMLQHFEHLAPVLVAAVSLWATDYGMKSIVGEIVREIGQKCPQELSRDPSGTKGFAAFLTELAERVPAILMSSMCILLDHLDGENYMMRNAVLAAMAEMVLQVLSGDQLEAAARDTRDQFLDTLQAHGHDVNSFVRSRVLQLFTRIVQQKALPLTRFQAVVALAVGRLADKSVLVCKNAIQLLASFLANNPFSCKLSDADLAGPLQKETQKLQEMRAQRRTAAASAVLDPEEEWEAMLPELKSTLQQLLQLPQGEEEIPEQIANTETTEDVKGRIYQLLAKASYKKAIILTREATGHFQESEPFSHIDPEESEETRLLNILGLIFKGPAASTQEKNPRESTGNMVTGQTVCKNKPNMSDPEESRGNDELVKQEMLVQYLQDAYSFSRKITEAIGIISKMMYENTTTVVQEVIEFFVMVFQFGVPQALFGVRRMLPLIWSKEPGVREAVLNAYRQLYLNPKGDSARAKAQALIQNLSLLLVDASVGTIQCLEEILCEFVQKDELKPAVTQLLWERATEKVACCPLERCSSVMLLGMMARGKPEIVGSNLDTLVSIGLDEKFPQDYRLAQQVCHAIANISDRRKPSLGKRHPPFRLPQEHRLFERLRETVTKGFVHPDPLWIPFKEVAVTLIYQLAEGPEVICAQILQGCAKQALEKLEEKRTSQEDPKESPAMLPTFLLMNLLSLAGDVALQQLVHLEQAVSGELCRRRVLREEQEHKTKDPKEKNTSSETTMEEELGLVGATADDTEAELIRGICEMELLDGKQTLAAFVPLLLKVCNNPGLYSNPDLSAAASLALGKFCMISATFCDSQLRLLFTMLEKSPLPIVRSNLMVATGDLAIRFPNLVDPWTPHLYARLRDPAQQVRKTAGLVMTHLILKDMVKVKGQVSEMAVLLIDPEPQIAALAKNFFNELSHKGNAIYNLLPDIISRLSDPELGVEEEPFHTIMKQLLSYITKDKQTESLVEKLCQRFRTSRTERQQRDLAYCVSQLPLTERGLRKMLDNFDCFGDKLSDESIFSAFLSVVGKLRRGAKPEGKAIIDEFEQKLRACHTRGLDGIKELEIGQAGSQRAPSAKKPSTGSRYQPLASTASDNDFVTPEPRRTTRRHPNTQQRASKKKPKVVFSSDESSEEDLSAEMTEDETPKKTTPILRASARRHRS", "details": "1 h, 22Rv1 cells, 20 μM probe, relative to DMSO; for % engagement NCAPD2_C439: 60 min, 20 µM", "summary_of_the_method": "as §1"}},
  "data": [
    {"smiles": "C=CC(=O)N1C[C@@H](c2ccc(Br)cc2)[C@H]1C(=O)Nc1cccc2cccnc12", "note": "[MY-1A, (2S,3R)-1-acryloyl-3-(4-bromophenyl)-N-(quinolin-8-yl)azetidine-2-carboxamide]", "values": [
      {"measurement": "% engagement ABCB8_C454", "setting": "[1]", "result": "−1.25", "unit": "%"},
      {"measurement": "% engagement BCKDK_C118", "setting": "[2]", "result": 55.5, "unit": "%"},
      {"measurement": "% engagement EPB42_C586", "setting": "[3]", "result": 55, "unit": "%"},
      {"measurement": "inhibition at 20 µM", "setting": "[4]", "result": 29.5, "unit": "%"}
    ]},
    {"smiles": "C=CC(=O)N1C[C@H](c2ccc(Br)cc2)[C@@H]1C(=O)Nc1cccc2cccnc12", "note": "[MY-1B, (2R,3S)-1-acryloyl-3-(4-bromophenyl)-N-(quinolin-8-yl)azetidine-2-carboxamide]", "values": [
      {"measurement": "% engagement ABCB8_C454", "setting": "[1]", "result": 14, "unit": "%"},
      {"measurement": "% engagement BCKDK_C118", "setting": "[2]", "result": 57.75, "unit": "%"},
      {"measurement": "% engagement EPB42_C586", "setting": "[3]", "result": 33.5, "unit": "%"},
      {"measurement": "inhibition at 20 µM", "setting": "[4]", "result": 20, "unit": "%"}
    ]},
    {"smiles": "C=CC(=O)N1C[C@H](c2ccc(Br)cc2)[C@H]1C(=O)Nc1cccc2cccnc12", "note": "[MY-3A, (2S,3S)-1-acryloyl-3-(4-bromophenyl)-N-(quinolin-8-yl)azetidine-2-carboxamide]", "values": [
      {"measurement": "% engagement ABCB8_C454", "setting": "[1]", "result": 24, "unit": "%"},
      {"measurement": "% engagement BCKDK_C118", "setting": "[2]", "result": 43, "unit": "%"},
      {"measurement": "% engagement EPB42_C586", "setting": "[3]", "result": 66.5, "unit": "%"},
      {"measurement": "% engagement NCAPD2_C439", "setting": "[4]", "result": 21.5, "unit": "%"}
    ]},
    {"smiles": "C=CC(=O)N1C[C@H](c2ccc(Br)cc2)[C@H]1C(=O)Nc1cccc2cccnc12", "note": "[MY-3B, (2S,3S)-1-acryloyl-3-(4-bromophenyl)-N-(quinolin-8-yl)azetidine-2-carboxamide]", "values": [
      {"measurement": "% engagement ABCB8_C454", "setting": "[1]", "result": 67, "unit": "%"},
      {"measurement": "% engagement BCKDK_C118", "setting": "[2]", "result": 78.5, "unit": "%"},
      {"measurement": "% engagement EPB42_C586", "setting": "[3]", "result": 43.5, "unit": "%"},
      {"measurement": "% engagement NCAPD2_C439", "setting": "[4]", "result": 80, "unit": "%"}
    ]}
  ]
}
